{
  "source": "paper PMC8592419",
  "about": "(PLoS ONE, 2021)",
  "key": {"[1]": {"tested_on": "M. abscessus clinical isolate MAB12", "assay": "microbe, parasite or virus in culture", "type": "cell-based, M. abscessus subsp. massiliense", "conditions": "MAB12", "description": "(§1) Mab suspensions at a 5×10^5 CFU/ml final concentration were added to each well and incubated for 3 days and 14 days at 37°C. MIC values were defined when the percent killing of CFUs of more than 90% were compared to the media controls without AMPs or drugs. The fraction inhibitory concentration index (FICI) was calculated using the following formula: FICI = [C(MIC^A)/MIC^A] + [C(MIC^B)/MIC^B]. […] For interpretation, FICI ≤ 0.5 was interpreted as synergism, FICI >0.5–1.0 was interpreted as additive, FICI >1.0–4.0 was interpreted as indifferent and FICI >4.0 was interpreted as antagonism."}, "[2]": {"tested_on": "M. abscessus clinical isolate MAB14", "assay": "microbe, parasite or virus in culture", "type": "cell-based, M. abscessus subsp. massiliense", "conditions": "MAB14", "description": "as §1"}, "[3]": {"tested_on": "clinical isolates of M. abscessus", "assay": "In vitro susceptibility of potential AMPs, 3 days, summary over isolates", "type": "cell-based, Mycobacterium abscessus", "conditions": "isolates MAB01 and MAB03", "description": "(§2) Briefly, serial dilutions of the AMPs were prepared with potassium phosphate buffer (PPB) from the concentration range of 3.125 to 400 μg/ml and then 50 μl of each dilution were added to each 96-well plate. Colonies of the isolate were suspended and then further diluted in Mueller-Hinton broth to obtain a final concentration of 1×10^3 CFU/ml (optimized according to the available AMP stock concentration). Fifty microliters of this inoculum were added to each well of the plates. The plates were incubated for 3 days at 37°C. Plain media and bacterial suspensions without AMPs were used as negative and positive controls. The MIC values were read and recorded. All assays were performed in duplicate and two independent experiments.\n(§3) For the in vitro antimicrobial susceptibility, the same protocol as described above was used. The culture plates were further incubated up to 3 days at 37°C. The MIC values were read and recorded."}, "[4]": {"tested_on": "M. abscessus clinical isolate MAB07", "assay": "microbe, parasite or virus in culture", "type": "cell-based, M. abscessus subsp. abscessus", "conditions": "MAB07", "description": "as §1"}, "[5]": {"tested_on": "M. abscessus clinical isolate MAB10", "assay": "microbe, parasite or virus in culture", "type": "cell-based, M. abscessus subsp. abscessus", "conditions": "MAB10", "description": "as §1"}, "[6]": {"tested_on": "M. abscessus clinical isolate MAB05", "assay": "microbe, parasite or virus in culture", "type": "cell-based, M. abscessus subsp. abscessus", "conditions": "MAB05", "description": "as §1"}, "[7]": {"tested_on": "M. abscessus clinical isolate MAB02", "assay": "microbe, parasite or virus in culture", "type": "cell-based, M. abscessus subsp. abscessus", "conditions": "MAB02", "description": "as §1"}, "[8]": {"tested_on": "M. abscessus clinical isolate MAB09", "assay": "microbe, parasite or virus in culture", "type": "cell-based, M. abscessus subsp. abscessus", "conditions": "MAB09", "description": "as §1"}, "[9]": {"tested_on": "M. abscessus clinical isolate MAB11", "assay": "microbe, parasite or virus in culture", "type": "cell-based, M. abscessus subsp. abscessus", "conditions": "MAB11", "description": "as §1"}, "[10]": {"tested_on": "M. abscessus clinical isolate MAB03", "assay": "microbe, parasite or virus in culture", "type": "cell-based, M. abscessus subsp. abscessus", "conditions": "MAB03", "description": "as §1"}, "[11]": {"tested_on": "M. abscessus clinical isolate MAB01", "assay": "microbe, parasite or virus in culture", "type": "cell-based, M. abscessus subsp. abscessus", "conditions": "MAB01; AMP + CLA; mean ± S.D., two independent experiments", "description": "as §1"}, "[12]": {"tested_on": "M. abscessus clinical isolate MAB06", "type": "cell-based, M. abscessus subsp. abscessus", "conditions": "3 days at 37°C", "description": "as §2, §3"}, "[13]": {"tested_on": "human peripheral blood mononuclear cells (PBMCs)", "assay": "PBMC toxicity, trypan blue exclusion assay", "type": "cell-based", "conditions": "1 h at 37°C, mean±SD of duplicates, two independent experiments", "description": "For the toxicity of the potential AMPs to human peripheral blood mononuclear cells (PBMCs), the trypan blue exclusion assay was used. Fresh human PBMCs were prepared from blood samples of healthy volunteers using the Ficoll density gradient technique. The cells were centrifuged at 1,800 rpm for 20 min at 20°C and washed three times with PBS and adjusted with RPMI-1640 medium into 6.25×10^5 cells/ml. Fifty microliters of PBMC suspension and 50 μl of AMP solutions (6.25–400 μg/ml) were added to the 96-well microtiter plates and incubated for 1 h at 37°C. Then, 20 μl of the samples were mixed with 20 μl of 0.4% (w/v) trypan blue solution (0.81% NaCl and 0.06% (w/v) dibasic potassium phosphate) in microtubes and incubated for 3 min at room temperature. The PBMC suspensions treated with PBS were used as negative controls. PBMCs were counted using a dual-chamber hemocytometer under a light microscope. Viable and non-viable cells were counted under a microscope and the percentage of viable cells was calculated using the following formula: % of viable cells = [1.00 –([…] / Number of total cells)] × 100. All assays were performed in duplicate with two independent experiments."}, "[14]": {"tested_on": "M. abscessus clinical isolate MAB13", "type": "cell-based, M. abscessus subsp. massiliense", "conditions": "3 days at 37°C", "description": "as §2, §3"}, "Mab ATCC19977 strain": {"tested_on": "Mab ATCC19977 strain", "type": "cell-based, Mycobacterium abscessus", "summary_of_the_method": "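AMPs were serially diluted in potassium phosphate buffer over 3.125–400 μg/ml (pre-mixing concentrations) and combined with an equal volume of isolate inoculum in Mueller-Hinton broth at 1×10^3 CFU/ml. After 3 days at 37 °C the MIC was read; runs were in duplicate across two independent experiments.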"}, "[15]": {"conditions": "AMP + CLA, mean ± S.D., two independent experiments"}},
  "note": "Where a SMILES comes first, the peptide text is derived from it.",
  "data": [
    {"smiles": "CC[C@H](C)[C@H](NC(=O)[C@H](CCCCN)NC(=O)[C@H](CCCNC(=N)N)NC(=O)CNC(=O)[C@H](CC(C)C)NC(=O)[C@H](CO)NC(=O)[C@H](CCCNC(=N)N)NC(=O)[C@H](CC(C)C)NC(=O)CNC(=O)CN)C(=O)N[C@@H](CC(C)C)C(=O)N[C@@H](CCCNC(=N)N)C(=O)N[C@@H](C)C(=O)N[C@@H](Cc1c[nH]c2ccccc12)C(=O)N[C@@H](CCCCN)C(=O)O", "note": "[S63] (H-GGLRSLGRKILRAWK-OH)", "values": [
      {"measurement": "FICI", "setting": "[1]; [15]", "value": "1.01±0.00"},
      {"measurement": "MIC, AMP alone", "setting": "[1]; AMP alone", "value": ">400", "unit": "µg/mL"},
      {"measurement": "FICI", "setting": "[2]; [15]", "value": "0.19±0.00"},
      {"measurement": "MIC, AMP alone", "setting": "[2]; AMP alone", "value": ">400", "unit": "µg/mL"},
      {"measurement": "MIC values after 3 days", "setting": "[3]", "value": "3.65 to 7.30", "unit": "µM"},
      {"measurement": "FICI", "setting": "[4]; [15]", "value": "0.04±0.01"},
      {"measurement": "MIC, AMP alone", "setting": "[4]; AMP alone", "value": ">400", "unit": "µg/mL"},
      {"measurement": "FICI", "setting": "[5]; [15]", "value": "0.07±0.00"},
      {"measurement": "MIC, AMP alone", "setting": "[5]; AMP alone", "value": ">400", "unit": "µg/mL"},
      {"measurement": "FICI", "setting": "[6]; [15]", "value": "1.01±0.00"},
      {"measurement": "MIC, AMP alone", "setting": "[6]; AMP alone", "value": ">400", "unit": "µg/mL"},
      {"measurement": "FICI", "setting": "[7]; [15]", "value": "1.04±0.04"},
      {"measurement": "MIC, AMP alone", "setting": "[7]; AMP alone", "value": ">400", "unit": "µg/mL"},
      {"measurement": "FICI", "setting": "[8]; [15]", "value": "0.52±0.00"},
      {"measurement": "MIC, AMP alone", "setting": "[8]; AMP alone", "value": ">400", "unit": "µg/mL"},
      {"measurement": "FICI", "setting": "[9]; [15]", "value": "0.76±0.35"},
      {"measurement": "MIC, AMP alone", "setting": "[9]; AMP alone", "value": ">400", "unit": "µg/mL"},
      {"measurement": "FICI", "setting": "[10]; [15]", "value": "0.52±0.00"},
      {"measurement": "MIC, AMP alone", "setting": "[10]; AMP alone", "value": 12.5, "unit": "µg/mL"},
      {"measurement": "FICI", "setting": "[11]", "value": "0.63±0.17"},
      {"measurement": "Antimicrobial peptides against M. abscessus isolates, MIC value", "setting": "[12]", "value": ">400", "unit": "µg/mL"},
      {"measurement": "Viable cells of PBMCs (% viable cells)", "setting": "[13]; 6.25 µg/mL", "value": "103.67±6.60", "unit": "%"},
      {"measurement": "Viable cells of PBMCs (% viable cells)", "setting": "[13]; 12.5 µg/mL", "value": "101.78±5.46", "unit": "%"},
      {"measurement": "Viable cells of PBMCs (% viable cells)", "setting": "[13]; 25 µg/mL", "value": "88.38±7.60", "unit": "%"},
      {"measurement": "Viable cells of PBMCs (% viable cells)", "setting": "[13]; 50 µg/mL", "value": "93.65±6.02", "unit": "%"},
      {"measurement": "Viable cells of PBMCs (% viable cells)", "setting": "[13]; 100 µg/mL", "value": "66.28±2.71", "unit": "%"},
      {"measurement": "Viable cells of PBMCs (% viable cells)", "setting": "[13]; 200 µg/mL", "value": "71.94±8.32", "unit": "%"},
      {"measurement": "Viable cells of PBMCs (% viable cells)", "setting": "[13]; 400 µg/mL", "value": "48.78±0.59", "unit": "%"},
      {"measurement": "Antimicrobial peptides against M. abscessus isolates, MIC value", "setting": "[14]", "value": ">400", "unit": "µg/mL"},
      {"measurement": "MIC values", "setting": "Mab ATCC19977 strain", "value": 200, "unit": "µg/mL"}
    ]}
  ]
}
